# Publication PMC11381475, “Biopharmaceutical profiling of anti-infective sanggenons from Morus alba root bark for inhalation administration” (International Journal of Pharmaceutics: X, 2024)
# Entries after “also recorded” stand apart in the source; their conditions may differ.
# Columns and labels:
# [1] = UV-metric pKa measurement (SiriusT3); format: physicochemical; conditions: experimental, SiriusT3, 25 °C, mean ± S.D.
# Procedure: Experimental pKa (−log10 of the acid dissociation equilibrium constant) values of SGC and SGD were evaluated using the UV-metric pKa measurement method of the SiriusT3 automated titrator instrument and the corresponding software SiriusT3Control and SiriusT3Refine (Pion Inc., Billerica, USA). The SiriusT3 apparatus uses a deuterium lamp to determine the UV/Vis absorbance spectrum of the test solutions at each pH point. The standard aqueous UV-metric pKa measurement protocol was conducted according to manufacturer instructions. […] This was mixed with 25 μL phosphate buffer (14.7 mM K2HPO4 and 0.15 M KCl in MilliQ water) and diluted with 1.5 mL ionic strength-adjusted water (ISA water ≡ 0.15 M KCl in MilliQ water). The subsequent acid/base titration and measurement of UV absorbance was automatically performed by the SiriusT3 at 25.0 ± 0.5 °C. […] Turbidity was monitored by a turbidity sensor to ensure the absence of precipitation of the test compounds during the experiment, since accurate pKa measurements are limited to fully dissolved substances. In case turbidity occurred, individual titrations were not used for further analysis, resulting in a total of 11 analysable titrations across the 5 replicate samples for both SGC and SGD.
# [2] = potentiometric logP, water-octanol (SiriusT3); format: physicochemical; conditions: experimental, mean ± S.D., n = 3
# Procedure: LogP (partition coefficient) evaluation was performed via SiriusT3. The potentiometric logP measurement relies on assessing the partition profile of the test substance within a two-phase water-octanol solvent system. Changes in the relative volume ratio of octanol to water lead to shifts in the apparent pKa, resulting from the partitioning between non-ionised and ionised forms. LogP values were then estimated based on these assessments.
# Calu-3 cells [3] = test: Calu-3 cell uptake, FIA-TOFMS; format: in vitro ADME, human; conditions: 50 µg/mL; for Concentration [pg/µL] 1 in cell extract / Normalized concentration [pg/cell] 1: replicate 1; for Concentration [pg/µL] 2 in cell extract / Normalized concentration [pg/cell] 2: replicate 2; for Concentration [pg/µL] 3 in cell extract / Normalized concentration [pg/cell] 3: replicate 3
# Procedure: At 4, 12, and 24 h after addition, cell extracts were generated in triplicates. To that end, the medium was aspirated from the respective wells, and cells were washed with pre-warmed ammonium carbonate solution (75 mM, pH 7.4, 37 °C). Immediately after removal of the wash solvent, 300 μL cold extraction solvent (40:40:20 acetonitrile:methanol:water, −20 °C) was added per well to lyse cells in situ and stop the enzymatic activity. The bottom of each well was subsequently scraped and the cell extracts were transferred to 96-well storage plates and stored at −80 °C until analysis. […] Quantification of SGC and SGD was performed using flow-injection time-of-flight mass spectrometry (FIA-TOFMS) in negative ion mode as described previously ([Fuhrer et al., 2011]). SGC and SGD signals were identified by matching accurate masses (for both [M-H]- at 707.2127 m/z). To account for possible influences of the complex matrix in the cell extract samples, a matrix-matched series of calibration samples were prepared, in which increasing concentrations of SGC were spiked into extracts of cells that had not previously been treated with either SGC or SGD. The calibration samples were injected alongside the cell extract samples and used to establish a calibration function using linear regression. The ion intensities measured were converted into SGC and SGD concentrations and normalized by the cell number in each sample, which was determined at each time point in separate cell cultures using trypan blue staining and cell counting in a Thermo Fisher Countess II Automated cell counter after trypsin-mediated cell detachment. This procedure eventually yielded estimates of SGC and SGD contents in pg/cell.
# Calu-3 monolayer [4] = test: MTT assay on Calu-3 monolayer after permeability study; format: cell-based, human; conditions: after B-A permeability study
# Procedure: To assess potential cytotoxic effects on the monolayer, cell culture medium (10% FBS, 1% P/S) containing 0.45 mg/mL MTT reagent was added to the inserts (300 µL) and wells (1500 µL). Cells treated with fluorescein (40 µg/mL) served as a control. Samples were then incubated for 3.5 hours at 37°C. Following incubation, the MTT solution was removed, and DMSO was added to dissolve the formazan crystals (300 µL for inserts; 1500 µL for wells). The plates were incubated on a shaking platform at 200 rpm in the absence of light for 30 minutes. Subsequently, 100 µL samples from each well were pipetted into a 96-well plate, and the absorbance was measured at 570 nm using an Epoch 2 spectrophotometer.
# SARS-CoV-2 = tested on: SARS-CoV-2; parameters: method as in Wasilewicz et al., 2023; conditions: reported to be based on inhibition of the viral main protease, ref Wasilewicz et al., 2023; read-out: anti-SARS-CoV-2 activity IC50; cited from earlier work
# [5] = mice, doses up to 100 mg/kg, ref Langeder et al., 2023b; cited from earlier work
# Calu-3 cells [6] = test: Calu-3 cell viability, MTT assay; conditions: MTT
# Calu-3 monolayer [7] = test: bidirectional permeability across Calu-3 monolayer; conditions: for concentration in the acceptor chamber (B-A): n = 3
# Calu-3 monolayer [8] = test: TEER of Calu-3 monolayer before and after permeability study
# [9] = control experiments for serum binding and adsorption to plastic
# [10] = pH-dependent thermodynamic solubility, miniaturized shake-flask method, UPLC-PDA
# in vitro = conditions: human
# Calu-3 cells [11] = conditions: cited from earlier work
# 16HBE14o- cells = conditions: cited from earlier work
# NHBE cells = conditions: cited from earlier work
compound,measurement,setting,value
sanggenon D [SGD],pKa 1,[1],3.27 ± 0.37
same,pKa 2,[1],6.37 ± 0.13
same,pKa 3,[1],7.25 ± 0.32
same,pKa 4,[1],7.99 ± 0.26
same,pKa 5,[1],8.99 ± 0.08
same,pKa 6,[1],9.94 ± 0.04
same,pKa 7,[1],10.78 ± 0.01
same,pKa 8,[1],12.04 ± 0.07
same,logP,[2],2.92 ± 0.07
same,"intracellular content, Mean [pg/cell]",Calu-3 cells [3]; 4 h,0.3 ± 0.2 pg/cell
same,Concentration [pg/µL] 1 in cell extract,Calu-3 cells [3]; 4 h,449 pg/µL
same,Normalized concentration [pg/cell] 1,Calu-3 cells [3]; 4 h,0.23 pg/cell
same,Concentration [pg/µL] 2 in cell extract,Calu-3 cells [3]; 4 h,281 pg/µL
same,Normalized concentration [pg/cell] 2,Calu-3 cells [3]; 4 h,0.14 pg/cell
same,Concentration [pg/µL] 3 in cell extract,Calu-3 cells [3]; 4 h,1158 pg/µL
same,Normalized concentration [pg/cell] 3,Calu-3 cells [3]; 4 h,0.60 pg/cell
same,"intracellular content, Mean [pg/cell]","Calu-3 cells [3]; 4 h, listed as Sanggenon D",0.32 pg/cell
same,"intracellular content, Mean [pg/cell]",Calu-3 cells [3]; 12 h,0.54 pg/cell
same,Concentration [pg/µL] 1 in cell extract,Calu-3 cells [3]; 12 h,1137 pg/µL
same,Normalized concentration [pg/cell] 1,Calu-3 cells [3]; 12 h,0.57 pg/cell
same,Concentration [pg/µL] 2 in cell extract,Calu-3 cells [3]; 12 h,1116 pg/µL
same,Normalized concentration [pg/cell] 2,Calu-3 cells [3]; 12 h,0.55 pg/cell
same,Concentration [pg/µL] 3 in cell extract,Calu-3 cells [3]; 12 h,1014 pg/µL
same,Normalized concentration [pg/cell] 3,Calu-3 cells [3]; 12 h,0.50 pg/cell
same,"intracellular content, Mean [pg/cell]",Calu-3 cells [3]; 24 h,0.69 pg/cell
same,Concentration [pg/µL] 1 in cell extract,Calu-3 cells [3]; 24 h,1552 pg/µL
same,Normalized concentration [pg/cell] 1,Calu-3 cells [3]; 24 h,0.59 pg/cell
same,Concentration [pg/µL] 2 in cell extract,Calu-3 cells [3]; 24 h,2206 pg/µL
same,Normalized concentration [pg/cell] 2,Calu-3 cells [3]; 24 h,0.84 pg/cell
same,Concentration [pg/µL] 3 in cell extract,Calu-3 cells [3]; 24 h,1671 pg/µL
same,Normalized concentration [pg/cell] 3,Calu-3 cells [3]; 24 h,0.63 pg/cell
same,cytotoxic effects on Calu-3 monolayer after permeability study (MTT),Calu-3 monolayer [4],Neither batch 1 nor batch 2 showed a decrease in cell viability; also recorded: no cytotoxic effects
same,IC50,SARS-CoV-2,13.9 µM
same,serum and tissue concentrations after oral administration,[5],low serum and tissue concentrations
same,cytotoxic effects,"Calu-3 cells [6]; 50 μg/mL, 4-h and 12-h incubation",no cytotoxic effects were observed
same,CC50,"Calu-3 cells [6]; Calu-3 cells, 24 h exposure",120.5 mg/L
same,amount detected in the acceptor chamber (B-A),"Calu-3 monolayer [7]; B-A, 2 h, isolated SGD or extracts",< 0.6%
same,concentration in the acceptor chamber (B-A),"Calu-3 monolayer [7]; SGD after applying MA21 600 μg/mL, B-A, 2 h",0.0079 ± 0.0042 µg/mL
same,concentration in the acceptor chamber (B-A),"Calu-3 monolayer [7]; SGD after applying MA60 100 μg/mL, B-A, 2 h",0.0106 ± 0.0057 µg/mL
same,permeability across intact Calu-3 monolayers,Calu-3 monolayer [7]; abstract statement,no measurable permeability
same,evidence for permeability of SGC or SGD,"Calu-3 monolayer [7]; applied as extracts MA60 (100 μg/mL) and MA21 (600 μg/mL), 2 h","Neither by applying the isolated compounds nor the extracts MA60 and MA21, any evidence for the permeability of SGC or SGD was detectable"
same,concentration in the acceptor chamber (B-A),"Calu-3 monolayer [7]; isolated SGD 20 μg/mL applied, B-A, 2 h",0.0354 ± 0.0151 µg/mL
same,detection in the acceptor chamber after 2 h of incubation (A-B direction),"Calu-3 monolayer [7]; isolated compound 20 μg/mL, A-B",could not be detected
same,"change in TEER during permeability study, B-A direction","Calu-3 monolayer [8]; 20 µg/mL in basolateral chamber, 2 h, Calu-3 batch 1",significant decrease in TEER values; also recorded: loss in TEER
same,TEER after 24 h of incubating with medium at 37 °C,Calu-3 monolayer [8]; B-A directed test wells after permeability study,showed a recovery in TEER; also recorded: recovery to initial values
same,binding to serum proteins,[9],no indication that SGC or SGD bind to serum proteins
same,pH 1.2 solubility,"[10]; compound within extract MA21, pH 1.2",< LOQ
same,pH 4.5 solubility,"[10]; compound within extract MA21, pH 4.5",< LOQ
same,pH 6.8 solubility,"[10]; compound within extract MA21, pH 6.8",< LOQ
same,pH 7.4 solubility,"[10]; compound within extract MA21, pH 7.4",< LOQ
same,pH 1.2 solubility,"[10]; compound within extract MA60, pH 1.2",20.6 µg/mL
same,pH 4.5 solubility,"[10]; compound within extract MA60, pH 4.5",19.7 µg/mL
same,pH 6.8 solubility,"[10]; compound within extract MA60, pH 6.8",56.8 µg/mL
same,pH 7.4 solubility,"[10]; compound within extract MA60, pH 7.4",94.9 µg/mL
same,pH 1.2 solubility,"[10]; isolated compound, HCl buffer pH 1.2, 24 h, 24 °C",111 µg/mL
same,pH 4.5 solubility,"[10]; isolated compound, acetate buffer pH 4.5, 24 h, 24 °C",121 µg/mL
same,pH 6.8 solubility,"[10]; isolated compound, phosphate buffer pH 6.8, 24 h, 24 °C",304 µg/mL
same,pH 7.4 solubility,"[10]; isolated compound, phosphate buffer pH 7.4, 24 h, 24 °C",493 µg/mL
COCCc1ccc(OCC(O)CNC(C)C)cc1 (stereo not drawn) [metoprolol],"Papp A→B at 2 h, 500 μM",in vitro,254 ± 69 nm/s
same,"Papp B→A at 2 h, 500 μM",in vitro,233 ± 49 nm/s
same,Papp,Calu-3 cells [11],10.3 ± 0.0 × 10^−6 cm/s
same,Papp,16HBE14o- cells,24.5 ± 2.5 × 10^−6 cm/s
same,Papp,NHBE cells,11.3 ± 0.7 × 10^−6 cm/s
